These results are taken from patent US20250135006A1, “AMPHIPHILIC TLR7/8 ADJUVANTS AND USES THEREOF” (Pfizer Inc., priority 2023, published 2025).

The term EC50 denotes the midpoint of the concentration-response curve. Read a low EC50 as greater potency.

The subject of one test is S. pneumoniae serotype 3. It counts as in vivo, female Swiss-Webster mice. The note with it: mouse.
Test [1] concerns the target T1, human toll like receptor 8 (hTLR8) (Homo sapiens, UniProt Q9NR97).
T1 construct: host or cells: HEK293 (HEK-Blue hTLR8)
T1 sequence (Q9NR97 27-1041): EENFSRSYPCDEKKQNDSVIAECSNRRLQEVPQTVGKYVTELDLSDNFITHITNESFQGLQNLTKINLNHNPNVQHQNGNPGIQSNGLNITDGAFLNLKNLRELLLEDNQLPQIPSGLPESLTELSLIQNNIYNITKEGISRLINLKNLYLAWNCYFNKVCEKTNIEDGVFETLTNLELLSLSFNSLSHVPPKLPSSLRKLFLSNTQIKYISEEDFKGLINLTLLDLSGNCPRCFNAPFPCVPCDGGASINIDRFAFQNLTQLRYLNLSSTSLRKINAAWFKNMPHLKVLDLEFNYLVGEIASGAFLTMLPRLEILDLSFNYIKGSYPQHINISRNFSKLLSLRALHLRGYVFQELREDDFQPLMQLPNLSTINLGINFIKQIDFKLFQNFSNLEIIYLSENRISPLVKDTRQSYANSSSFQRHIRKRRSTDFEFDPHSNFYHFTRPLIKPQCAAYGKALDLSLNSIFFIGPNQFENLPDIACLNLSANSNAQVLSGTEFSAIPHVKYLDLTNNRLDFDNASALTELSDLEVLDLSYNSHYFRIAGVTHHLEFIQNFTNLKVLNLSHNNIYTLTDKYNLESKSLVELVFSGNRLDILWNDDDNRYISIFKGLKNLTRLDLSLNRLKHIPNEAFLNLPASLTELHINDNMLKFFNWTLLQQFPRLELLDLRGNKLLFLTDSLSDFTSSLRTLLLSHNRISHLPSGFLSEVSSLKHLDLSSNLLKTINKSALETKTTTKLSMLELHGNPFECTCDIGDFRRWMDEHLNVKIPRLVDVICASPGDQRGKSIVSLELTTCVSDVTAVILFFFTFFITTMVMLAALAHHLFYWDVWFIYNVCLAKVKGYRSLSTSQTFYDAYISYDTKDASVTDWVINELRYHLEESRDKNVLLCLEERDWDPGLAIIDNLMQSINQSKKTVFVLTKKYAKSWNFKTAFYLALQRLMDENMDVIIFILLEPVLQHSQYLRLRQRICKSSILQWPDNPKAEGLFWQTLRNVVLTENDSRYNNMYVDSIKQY
Briefly: hTLR8 in-vitro functional assay (HEK-Blue hTLR8 SEAP reporter). Type of test: cell-based. The note with it: HEK-Blue hTLR8 cells, overnight incubation.

As to `CCCCc1nc2c(N)nc3cc(CCCN4CCN(C(=O)CCOCCOCCOCCOCCOCCOCCOCCOCCOCCOCCOCCOCCOCCOCCOCCOCCOCCOCCOCCOCCOCCOCCOCCOCCNC(=O)CCOCCOCCOCCOCCNC(=O)CCCOc5c(C)c(C)c6c(c5C)CC[C@@](C)(CCC[C@H](C)CCC[C@H](C)CCCC(C)C)O6)CC4)ccc3c2n1CC(C)(CO)CO` [Compound 2, N-{75-[4-(3-{4-amino-2-butyl-1-[3-hydroxy-2-(hydroxymethyl)-2-methylpropyl]-1H-imidazo[4,5-c]quinolin-7-yl}propyl)piperazin-1-yl]-75-oxo-3,6,9,12,15,18,21,24,27,30,33,36,39,42,45,48,51,54,57,60,63,66,69,72-tetracosaoxapentaheptacont-1-yl}-17-oxo-20-({(2R)-2,5,7,8-tetramethyl-2-[(4R,8R)-4,8,12-trimethyltridecyl]-3,4-dihydro-2H-chromen-6-yl}oxy)-4,7,10,13-tetraoxa-16-azaicosan-1-amide], in the test with S. pneumoniae serotype 3 (0.1 μg S. pneumoniae serotype 3-CRM197 antigen with adjuvant (2 nmol; AlPO4 100 μg), IM weeks 0 and 3, sera week 5), the “OPA geometric mean titers (GMT)” value is given as 610. Besides, the “OPA geometric mean titers compared with reference adjuvants” value in the test on S. pneumoniae serotype 3 (S. pneumoniae serotype 3 antigen, versus aluminum phosphate and free TLR 7/8 agonist) was “higher average OPA geometric mean titers than aluminum phosphate, as well as the free TLR 7/8 agonist molecule”. The compound further showed an EC50 in test [1] of 5.03 µM.
